Like-named read-outs stand apart in the source and are kept apart here.
Experiments:
[1] = Mouse pharmacokinetic test; assay type: in vivo, ICR mice; settings: plasma; for bioavailability: PO-30mpk vs IV-0.5mpk; for Tmax: read-out: Tmax
Outline: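 Male naive ICR mice (25–30 g, n=3 per route) received a single intravenous or oral dose, with feeding resumed 4 h post-dose. Blood was centrifuged at 4°C, and plasma was stored at -80°C until analysis.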

LNCaP cells = assay: Cell proliferation inhibition assay in LNCaP cells (0.2 nM DHT, CellTiter-Glo, 7 days); assay type: cell-based, human; settings: Homo sapiens, LNCaP, 168 h
Outline: (§1)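 22RV1 cells received compound alone; LNCaP cells were stimulated with 0.2 nM DHT added 1 h after compound. Seeding was 3000 cells/well.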

CYP2C19 = target: T1, CYP2C19 (Homo sapiens, UniProt P33261); assay: CYP inhibition assay in human liver microsomes; assay type: in vitro ADME
T1 construct: co-incubated with human liver microsomes; from tissue; host or cells: human liver microsomes
Outline: (§2)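 Human liver microsomes co-incubated with isozyme-specific probe substrates and compound at 0–10.0 µM (0, 0.0300, 0.100, 0.300, 1.00, 3.00, 10.0 µM), reaction started with NADPH. Probe metabolites quantified by LC-MS/MS; IC50 derived from dose-response curves.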

CYP2D6 = target: T2, CYP2D6 (Homo sapiens, UniProt P10635); assay: CYP inhibition assay in human liver microsomes; assay type: in vitro ADME
T2 construct: co-incubated with human liver microsomes; from tissue; host or cells: human liver microsomes
Outline: as §2

[2] = target: T3, CYP3A4 (testosterone/midazolam) (Homo sapiens, UniProt P08684); assay: CYP inhibition assay in human liver microsomes; assay type: in vitro ADME
T3 construct: co-incubated with human liver microsomes; from tissue; host or cells: human liver microsomes
Outline: as §2

CYP1A2 = target: T4, CYP1A2 (Homo sapiens, UniProt P05177); assay: CYP inhibition assay in human liver microsomes; assay type: in vitro ADME
T4 construct: co-incubated with human liver microsomes; from tissue; host or cells: human liver microsomes
T4 sequence (P05177 1-516): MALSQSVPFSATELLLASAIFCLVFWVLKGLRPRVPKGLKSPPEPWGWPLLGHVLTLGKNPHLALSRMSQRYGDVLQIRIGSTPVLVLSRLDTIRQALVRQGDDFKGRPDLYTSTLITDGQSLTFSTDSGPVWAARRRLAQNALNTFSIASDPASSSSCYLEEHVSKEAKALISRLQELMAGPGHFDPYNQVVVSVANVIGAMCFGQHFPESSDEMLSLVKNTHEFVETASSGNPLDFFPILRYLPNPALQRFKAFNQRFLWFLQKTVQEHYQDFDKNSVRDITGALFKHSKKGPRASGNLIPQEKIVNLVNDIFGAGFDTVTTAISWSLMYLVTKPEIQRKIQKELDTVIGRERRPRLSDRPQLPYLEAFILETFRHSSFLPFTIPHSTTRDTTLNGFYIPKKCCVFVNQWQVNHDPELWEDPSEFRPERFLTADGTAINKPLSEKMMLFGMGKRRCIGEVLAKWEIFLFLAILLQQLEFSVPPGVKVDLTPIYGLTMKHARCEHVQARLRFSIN
Outline: as §2

CYP2C8 = target: T5, CYP2C8 (Homo sapiens, UniProt P10632); assay: CYP inhibition assay in human liver microsomes; assay type: in vitro ADME
T5 construct: co-incubated with human liver microsomes; from tissue; host or cells: human liver microsomes
T5 sequence (P10632 1-490): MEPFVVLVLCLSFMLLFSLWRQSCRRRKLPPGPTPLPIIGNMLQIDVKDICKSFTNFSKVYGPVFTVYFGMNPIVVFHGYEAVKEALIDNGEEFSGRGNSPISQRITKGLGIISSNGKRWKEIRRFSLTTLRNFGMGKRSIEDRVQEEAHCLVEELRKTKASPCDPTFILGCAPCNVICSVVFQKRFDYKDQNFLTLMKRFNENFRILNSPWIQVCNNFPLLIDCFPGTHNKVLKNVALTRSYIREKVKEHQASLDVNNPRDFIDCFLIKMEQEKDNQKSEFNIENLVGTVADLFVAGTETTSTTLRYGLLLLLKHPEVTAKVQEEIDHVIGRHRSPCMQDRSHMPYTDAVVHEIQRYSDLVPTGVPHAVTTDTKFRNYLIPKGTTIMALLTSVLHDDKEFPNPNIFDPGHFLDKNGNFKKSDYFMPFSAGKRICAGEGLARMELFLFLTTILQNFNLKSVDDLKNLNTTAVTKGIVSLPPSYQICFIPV
Outline: as §2

CYP2C9 = target: T6, CYP2C9 (Homo sapiens, UniProt P11712); assay: CYP inhibition assay in human liver microsomes; assay type: in vitro ADME
T6 construct: co-incubated with human liver microsomes; from tissue; host or cells: human liver microsomes
Outline: as §2

22RV1 cells = assay: Cell proliferation inhibition assay in 22RV1 cells (CellTiter-Glo, 7 days); assay type: cell-based, human; settings: Homo sapiens, 22Rv1, 168 h
Outline: as §1

[3] = human liver microsomes, NADPH, read-out: CYPs 2C19 (IC50)
[4] = human liver microsomes, NADPH, read-out: CYPs 2D6 (IC50)
[5] = probe substrate midazolam, read-out: CYPs 3A4 (Midazolam) (IC50)
[6] = probe substrate testosterone, read-out: CYPs 3A4 (Testosterone) (IC50)
[7] = human liver microsomes, NADPH, read-out: CYPs 1A2 (IC50)
[8] = human liver microsomes, NADPH, read-out: CYPs 2C8 (IC50)
[9] = human liver microsomes, NADPH, read-out: CYPs 2C9 (IC50)

T3 sequence (P08684 whole entry): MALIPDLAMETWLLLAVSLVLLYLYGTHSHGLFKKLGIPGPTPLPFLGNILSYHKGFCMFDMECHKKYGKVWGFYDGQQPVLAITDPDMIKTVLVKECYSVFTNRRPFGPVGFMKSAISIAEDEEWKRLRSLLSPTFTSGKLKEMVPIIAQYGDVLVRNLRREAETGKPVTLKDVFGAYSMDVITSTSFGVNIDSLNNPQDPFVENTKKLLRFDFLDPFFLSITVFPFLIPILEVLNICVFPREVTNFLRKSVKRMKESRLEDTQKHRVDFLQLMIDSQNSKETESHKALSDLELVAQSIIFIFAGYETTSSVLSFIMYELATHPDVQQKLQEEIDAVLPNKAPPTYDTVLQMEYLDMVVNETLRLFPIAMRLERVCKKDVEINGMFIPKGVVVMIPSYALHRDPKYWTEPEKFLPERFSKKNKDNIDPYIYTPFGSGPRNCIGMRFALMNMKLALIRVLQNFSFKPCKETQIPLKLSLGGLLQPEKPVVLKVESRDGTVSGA
T2 sequence (P10635 whole entry): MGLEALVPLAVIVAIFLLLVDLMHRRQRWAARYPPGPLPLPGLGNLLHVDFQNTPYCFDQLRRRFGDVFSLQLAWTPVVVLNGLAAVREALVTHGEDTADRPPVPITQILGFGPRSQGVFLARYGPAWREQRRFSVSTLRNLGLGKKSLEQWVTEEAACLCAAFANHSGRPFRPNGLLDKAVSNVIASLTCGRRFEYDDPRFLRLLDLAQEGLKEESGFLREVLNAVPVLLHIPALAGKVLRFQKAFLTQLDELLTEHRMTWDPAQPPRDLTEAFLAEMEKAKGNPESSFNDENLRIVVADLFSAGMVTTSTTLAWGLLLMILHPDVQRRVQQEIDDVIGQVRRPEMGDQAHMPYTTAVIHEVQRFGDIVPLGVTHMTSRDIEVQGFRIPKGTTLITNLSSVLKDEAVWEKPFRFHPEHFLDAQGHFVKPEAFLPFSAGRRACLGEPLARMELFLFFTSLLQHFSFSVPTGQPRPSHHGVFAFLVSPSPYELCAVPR
T1 sequence (P33261 whole entry): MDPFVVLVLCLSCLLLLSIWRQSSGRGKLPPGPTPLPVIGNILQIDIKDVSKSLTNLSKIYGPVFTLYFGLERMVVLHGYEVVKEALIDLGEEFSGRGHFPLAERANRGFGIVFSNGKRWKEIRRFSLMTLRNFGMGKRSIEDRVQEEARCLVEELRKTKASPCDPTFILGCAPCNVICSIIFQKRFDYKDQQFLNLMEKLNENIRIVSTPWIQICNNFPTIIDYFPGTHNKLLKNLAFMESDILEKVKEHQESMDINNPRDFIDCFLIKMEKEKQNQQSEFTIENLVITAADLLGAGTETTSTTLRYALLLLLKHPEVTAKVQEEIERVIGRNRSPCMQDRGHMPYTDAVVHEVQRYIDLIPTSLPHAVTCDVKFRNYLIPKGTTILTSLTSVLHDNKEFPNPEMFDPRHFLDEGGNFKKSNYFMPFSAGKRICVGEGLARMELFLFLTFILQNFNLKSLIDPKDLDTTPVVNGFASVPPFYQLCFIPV
T6 sequence (P11712 whole entry): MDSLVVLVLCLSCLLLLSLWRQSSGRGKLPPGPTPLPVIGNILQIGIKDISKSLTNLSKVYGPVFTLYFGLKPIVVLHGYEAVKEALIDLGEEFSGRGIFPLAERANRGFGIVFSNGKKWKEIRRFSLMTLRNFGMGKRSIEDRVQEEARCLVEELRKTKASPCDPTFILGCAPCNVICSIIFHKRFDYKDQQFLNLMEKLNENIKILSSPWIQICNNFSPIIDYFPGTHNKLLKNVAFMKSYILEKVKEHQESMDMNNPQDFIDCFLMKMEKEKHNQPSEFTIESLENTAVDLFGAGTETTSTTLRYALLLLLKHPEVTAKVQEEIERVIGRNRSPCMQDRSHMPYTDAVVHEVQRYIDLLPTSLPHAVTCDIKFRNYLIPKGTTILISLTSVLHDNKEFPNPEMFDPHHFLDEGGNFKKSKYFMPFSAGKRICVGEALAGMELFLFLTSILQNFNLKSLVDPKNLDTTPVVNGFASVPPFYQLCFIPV

CC(C)(c1ccc(-c2cnc(OCc3ccnc(N4CC(S(C)(=O)=O)C4)n3)cn2)cc1)c1cc(Cl)c(OCCCl)c(C#N)c1 [Compound 262]
C0 ([1]; 0.5 mg/kg, IV-0.5mpk): 1790 ng/mL | clearance ([1]; 0.5 mg/kg, IV-0.5mpk): 0.55 mL/min/kg | bioavailability ([1]; 30 mg/kg): 71.2% | AUC(0-inf) ([1]; iv, 0.5 mg/kg, IV-0.5mpk): 15.2 µg·h/mL | half-life ([1]; iv, 0.5 mg/kg, IV-0.5mpk): 10.8 h | AUC(0-inf) ([1]; po, 30 mg/kg, PO-30mpk): 648 µg·h/mL | Cmax ([1]; po, 30 mg/kg, PO-30mpk): 74700 ng/mL | half-life ([1]; po, 30 mg/kg, PO-30mpk): 5.2 h | Tmax ([1]; po, 30 mg/kg, PO-30mpk): 2 h | IC50 (LNCaP cells): 0.34 µM | IC50 (CYP2C19; [3]): > 10 µM | IC50 (CYP2D6; [4]): > 10 µM | IC50 [2, 5]: > 10 µM | IC50 [2, 6]: > 10 µM | IC50 (CYP1A2; [7]): > 10 µM | IC50 (CYP2C8; [8]): > 10 µM | IC50 (CYP2C9; [9]): 8.3 µM | IC50 (22RV1 cells): 0.14 µM

CC(C)(c1ccc(-c2cnc(OCc3ccnc(N4CC([S@](C)(=N)=O)C4)n3)cn2)cc1)c1cc(Cl)c(OCCCl)c(C#N)c1 (single isomer, unassigned) [Compound 323A]
AUC(0-inf) ([1]; po, 30 mg/kg, PO-30mpk): 1390 µg·h/mL | Cmax ([1]; po, 30 mg/kg, PO-30mpk): 131000 ng/mL | half-life ([1]; po, 30 mg/kg, PO-30mpk): 5.94 h | Tmax ([1]; po, 30 mg/kg, PO-30mpk): 3.3 h | IC50 (LNCaP cells): 0.58 µM | IC50 (CYP2C19; [3]): > 10 µM | IC50 (CYP2D6; [4]): > 10 µM | IC50 [2, 5]: > 10 µM | IC50 [2, 6]: > 10 µM | IC50 (CYP1A2; [7]): > 10 µM | IC50 (CYP2C8; [8]): > 10 µM | IC50 (CYP2C9; [9]): 8 µM

CC(C)(c1ccc(-c2ccc3oc(-c4ccnc(P(C)(C)=O)n4)c(N)c3c2)cc1)c1cc(Cl)c(OCCCl)c(C#N)c1 [Compound 56]
C0 ([1]; 0.5 mg/kg, IV-0.5mpk): 6190 ng/mL | clearance ([1]; 0.5 mg/kg, IV-0.5mpk): 1.02 mL/min/kg | bioavailability ([1]; 30 mg/kg): 55.6% | AUC(0-inf) ([1]; iv, 0.5 mg/kg, IV-0.5mpk): 8.3 µg·h/mL | half-life ([1]; iv, 0.5 mg/kg, IV-0.5mpk): 6.1 h | AUC(0-inf) ([1]; po, 30 mg/kg, PO-30mpk): 277 µg·h/mL | Cmax ([1]; po, 30 mg/kg, PO-30mpk): 29600 ng/mL | half-life ([1]; po, 30 mg/kg, PO-30mpk): 8.57 h | Tmax ([1]; po, 30 mg/kg, PO-30mpk): 3.33 h | IC50 (CYP2C19): > 10 µM | IC50 (CYP2D6): > 10 µM | IC50 ([2]; CYPs 3A4 (Midazolam) (IC50), probe substrate midazolam): > 10 µM | IC50 ([2]; CYPs 3A4 (Testosterone) (IC50), probe substrate testosterone): > 10 µM | IC50 (CYP1A2): > 10 µM | IC50 (CYP2C8): > 10 µM | IC50 (CYP2C9): > 10 µM | IC50 (22RV1 cells): 0.27 µM

CC(C)(c1ccc(-c2cnc(OCc3ccnc(N4CC([S@@](C)(=N)=O)C4)n3)cn2)cc1)c1cc(Cl)c(OCCCl)c(C#N)c1 (single isomer, unassigned) [Compound 323B]
AUC(0-inf) ([1]; po, 30 mg/kg, PO-30mpk): 1180 µg·h/mL | Cmax ([1]; po, 30 mg/kg, PO-30mpk): 108000 ng/mL | half-life ([1]; po, 30 mg/kg, PO-30mpk): 6.05 h | Tmax ([1]; po, 30 mg/kg, PO-30mpk): 2.7 h | IC50 (LNCaP cells): 0.58 µM | IC50 (CYP2C19; [3]): > 10 µM | IC50 (CYP2D6; [4]): > 10 µM | IC50 [2, 5]: > 10 µM | IC50 [2, 6]: > 10 µM | IC50 (CYP1A2; [7]): > 10 µM | IC50 (CYP2C8; [8]): > 10 µM | IC50 (CYP2C9; [9]): 2.9 µM

CC(C)(c1ccc(-c2ccc(OCc3ccc(-c4cnc(P(C)(C)=O)nc4)nc3)cc2)cc1)c1cc(Cl)c(OCCCl)c(C#N)c1 [Compound 276]
AUC(0-inf) ([1]; po, 30 mg/kg, PO-30mpk): 216 µg·h/mL | Cmax ([1]; po, 30 mg/kg, PO-30mpk): 13200 ng/mL | half-life ([1]; po, 30 mg/kg, PO-30mpk): 9 h | Tmax ([1]; po, 30 mg/kg, PO-30mpk): 4 h | IC50 (LNCaP cells): 0.51 µM | IC50 (CYP2C19; [3]): > 10 µM | IC50 [2, 5]: > 10 µM | IC50 [2, 6]: > 10 µM | IC50 (CYP2C8; [8]): > 10 µM | IC50 (CYP2C9; [9]): > 10 µM | IC50 (22RV1 cells): 0.11 µM

CC(C)(c1ccc(-c2ccc(OCc3ccnc(N4CC(S(C)(=O)=O)C4)n3)cn2)cc1)c1cc(Cl)c(OCCCl)c(C#N)c1 [Compound 85]
C0 ([1]; 0.5 mg/kg, IV-0.5mpk): 3110 ng/mL | clearance ([1]; 0.5 mg/kg, IV-0.5mpk): 0.63 mL/min/kg | bioavailability ([1]; 30 mg/kg): 58.3% | AUC(0-inf) ([1]; iv, 0.5 mg/kg, IV-0.5mpk): 13.7 µg·h/mL | half-life ([1]; iv, 0.5 mg/kg, IV-0.5mpk): 6.12 h | AUC(0-inf) ([1]; po, 30 mg/kg, PO-30mpk): 480 µg·h/mL | Cmax ([1]; po, 30 mg/kg, PO-30mpk): 43000 ng/mL | half-life ([1]; po, 30 mg/kg, PO-30mpk): 8.9 h | Tmax ([1]; po, 30 mg/kg, PO-30mpk): 2 h | IC50 (LNCaP cells): 0.33 µM | IC50 (CYP2C19; [3]): > 10 µM | IC50 [2, 5]: > 10 µM | IC50 [2, 6]: > 10 µM | IC50 (CYP2C8; [8]): > 10 µM | IC50 (CYP2C9; [9]): 6.5 µM | IC50 (22RV1 cells): 0.34 µM

CC(C)(c1ccc(-c2ccc(OCc3ccnc(P(C)(C)=O)n3)cc2)cc1)c1cc(Cl)c(OCCCl)c(C#N)c1 [Compound 2]
C0 ([1]; 0.5 mg/kg, IV-0.5mpk): 1200 ng/mL | clearance ([1]; 0.5 mg/kg, IV-0.5mpk): 1.09 mL/min/kg | bioavailability ([1]; 30 mg/kg): 135% | AUC(0-inf) ([1]; iv, 0.5 mg/kg, IV-0.5mpk): 7.65 µg·h/mL | half-life ([1]; iv, 0.5 mg/kg, IV-0.5mpk): 8.9 h | AUC(0-inf) ([1]; po, 30 mg/kg, PO-30mpk): 619 µg·h/mL | Cmax ([1]; po, 30 mg/kg, PO-30mpk): 31700 ng/mL | half-life ([1]; po, 30 mg/kg, PO-30mpk): 12 h | Tmax ([1]; po, 30 mg/kg, PO-30mpk): 3.3 h | IC50 (CYP2C19; [3]): > 10 µM | IC50 (CYP2D6; [4]): > 10 µM | IC50 [2, 5]: > 10 µM | IC50 [2, 6]: > 10 µM | IC50 (CYP1A2; [7]): > 10 µM | IC50 (CYP2C9; [9]): 6.9 µM | IC50 (22RV1 cells): 0.77 µM

— patent publication EP4778922A1, “BICYCLIC COMPOUND, AND PREPARATION METHOD THEREFOR AND PHARMACEUTICAL USE THEREOF” (Shanghai Jeyou Pharmaceutical Co., Ltd., priority 2023, dated 2025)
